Test results taken from US8808717B2, “Control of ectoparasites” (priority 2007, dated 2014).

Tests used:
[1] = system: Larval-stage lone star ticks (Amblyomma americanum); assay: Dip survival assay (larval immersion microassay) against A. americanum larvae; format: in vivo; settings: submerged 30 minutes, counted after 24 hours
Text: Activity Against A. Americanum Larvae in a Dip Survival Assay
Using a previously-described protocol that can effectively predict compound potency against adult ticks in the field (White, W H. et al., An in vitro larval immersion microassay for identifying and characterizing candidate acaricides. J Med Entomol. 2004 November; 41(6):1034-42), test compounds from a dimethyl sulfoxide (DMSO) stock or 2% DMSO alone were dispensed into a round-bottom 96-well plate and mixed with aqueous buffer containing 1% ethanol and 0.2% Triton X100. […] Larval-stage lone star ticks (Amblyomma americanum) were dispensed into the wells containing test compounds and submerged for 30 minutes. The ticks were subsequently dispensed into a tissue biopsy bag, which is allowed to dry for 1 hour. After drying, the bags were incubated at 25° with 95% humidity for 24 hours and the number of live and dead larvae were counted.

[2] = system: ova from cat flea (Ctenocephalides felis); assay: Activity against C. felis ova (larval emergence in treated vials); format: in vivo
Text: Activity Against C. Felis Ova
Evaluation of test compounds against flea ova is a commonly-used assay for the determination of commercial efficacy against these insect parasites (McTier T L et al., Evaluation of the effects of selamectin against adult and immature stages of fleas (Ctenocephalides felis felis) on dogs and cats. Vet Parasitol. 2000 Aug. 23; 91(3-4):201-12; Dryden M et al., Efficacy of a topically applied formulation of metaflumizone on cats against the adult cat flea, flea egg production and hatch, and adult flea emergence. Vet Parasitol. 2007 Dec. 15; 150(3):263-7). Compounds were dissolved in acetone and 100 μl of each solution was placed in 5 ml glass vials and allowed to air dry. Forty ova from cat flea (Ctenocephalides felis) that were less than 48 hours old as well as flea dirt (primarily adult flea fecal material and host dander) were placed in the vials. Vials were covered with paper towels to allow air exchange and incubated at 25° with 90% humidity for 5 days, and the number of larvae were counted.

[3] = system: cotton aphids; settings: cited from earlier work
[4] = system: mosquito larvae; settings: cited from earlier work
[5] = system: cabbage looper; settings: cited from earlier work
[6] = system: southern corn rootworm; settings: cited from earlier work
[7] = system: tobacco budworm; settings: cited from earlier work
[8] = system: tobacco bud worm; settings: tobacco budworm; cited from earlier work
[9] = rat versus trout liver microsomes; cited from earlier work
[10] = system: fish, mammals; settings: fish versus mammals; cited from earlier work

Row | Compound | Number of live/total tick larvae 24 hours after treatment ([1]; concentration 0.001%) | Number of live/total tick larvae 24 hours after treatment ([1]; concentration 0.01%) | Number of live/total tick larvae 24 hours after treatment ([1]; concentration 0.05%) | Flea larvae emerging, percent of total eggs, from 40 ova after 5 days ([2]; 10 μg per vial) [%] | Number of flea larvae emerging from 40 ova after 5 days ([2]; 10 μg per vial) | Flea larvae emerging, percent of total eggs, from 40 ova after 5 days ([2]; 100 μg per vial) | Number of flea larvae emerging from 40 ova after 5 days ([2]; 100 μg per vial) | Flea larvae emerging, percent of total eggs, from 40 ova after 5 days ([2]; 1 mg per vial) | Number of flea larvae emerging from 40 ova after 5 days ([2]; 1 mg per vial) | LC50 [3] [ppm] | LC50 [4] [ppm] | LC50 [5] [ppm] | activity (LC50) [6] | activity (LC50) [7] | metabolism [8] | degradation by liver microsomes [9] | toxicity [10]
1 | CC(C)(C)c1ccc(CCOc2ncnc3ccccc23)cc1 [Formula I, 4-tert-butylphenethyl quinazolin-4-yl ether] | 23/80 | 0/51 | 0/48 | 10 | 4 | 2.5% | 1 | 2.5% | 1 | 2.6 | 0.725 | 188 | greater than 400 ppm | greater than 400 ppm | extensively metabolized | degraded more extensively by rat liver microsomes than by trout liver microsomes | higher toxicity of the compound to fish than to mammals
2 | CCc1nn(C)c(C(=O)NCc2ccc(C(C)(C)C)cc2)c1Cl [Formula II, 4-chloro-5-ethyl-2-methyl-N-[(4-tert-butylphenyl)methyl]pyrazole-3-carboxamide] | 38/85 | 0/77 | 0/69 | 17.5 | 7 | 2.5% | 1 | 2.5% | 1 |  |  |  |  |  |  |  | 
3 | CCc1nn(C)c(C(=O)NCc2ccc(Oc3ccc(C)cc3)cc2)c1Cl [Formula IV, 4-chloro-3-ethyl-1-methyl-N-[4-(p-tolyloxy)benzyl]pyrazole-5-carboxamide] | 58/114 | 0/79 | 0/76 | 15 | 6 | 0 (0%) | 0 (0%) | 0 (0% ) | 0 (0% ) |  |  |  |  |  |  |  | 
